Where “and” joins values, the source holds several entries; their conditions need not be identical. Identical values can stand only once. Entries after “also recorded” stand apart in the source; their conditions may differ.
Legend:
[1] = molecular target: T1, Bet v 1a (Betula pendula, UniProt P15494); experiment: UV/VIS equilibrium titration of flavonoids with Bet v 1a; assay type: binding, Betula verrucosa; conditions: for Kd: Dissociation constant Kd, UV/VIS titration, 298 K, pH 7.0, 10% DMSO, error = standard error of fit; for Absorption maxima, Bet v 1a:Flavonoid: complex with Bet v 1a
T1 construct: made in house
T1 sequence (P15494 whole entry): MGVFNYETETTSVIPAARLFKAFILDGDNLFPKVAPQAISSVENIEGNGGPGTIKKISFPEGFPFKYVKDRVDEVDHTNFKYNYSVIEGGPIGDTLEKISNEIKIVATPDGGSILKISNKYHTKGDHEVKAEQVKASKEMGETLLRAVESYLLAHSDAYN
Procedure: (§1) All flavonoids and Bet v 1 isoforms were dissolved in 50 mM sodium phosphate, 50 mM NaCl, 10% (v/v) DMSO, pH 7.0, to a final concentration of 10 to 20 μM in 500 μl. Absorption spectra from 200–800 nm were recorded at 25°C in a 1 cm quartz cuvette (Hellma GmbH) using a 8453 UV-visible spectrophotometer (Agilent).
(§2) To further characterize flavonoid binding to Bet v 1, titration experiments were performed by adding small amounts of concentrated Bet v 1 isoform a, d or m to different flavonoids. Changes of flavonoid absorption occurring at specific wavelengths were plotted against the protein concentration. Prior to curve-fitting, absorbance data were corrected for dilution. If possible, the equilibrium dissociation constant (K d) was determined by non-linear regression analysis of the data with GraFit-5 (Version 5.0, Erithacus Software, UK) using the following Eq (1): ΔA=ΔAmax/2Q[(B+Q+Kd)-((B+Q+Kd)^2-[…])] (1) ΔA max, maximum change in absorbance at specific wavelengths; B, Bet v 1a concentration; Q, total flavonoid concentration.

[2] = molecular target: T1, Bet v 1a; experiment: 1H-15N HSQC NMR titration (chemical shift perturbation) of 15N-Bet v 1a; assay type: binding, Betula verrucosa; conditions: for Kd per residue / Kd / Dissociation constant Kd (averaged Kd app): Bet v 1a; for binding to Bet v 1a (in words): 1H-15N HSQC titration
Procedure: (§3) All NMR experiments were performed at 298 K in 50 mM sodium phosphate buffer, 50 mM NaCl, pH 7.0, 10% deuterium oxide (^2H2O) with ^15N-uniformly labelled Bet v 1 isoforms using Bruker Avance 700 MHz and Avance 800 MHz spectrometers with cryogenically cooled triple-resonance probes equipped with pulsed field-gradient capabilities. NMR data were processed using NMRPipe and visualized with NMRViewJ [89]. Three-dimensional ^15N-edited NOESY (nuclear Overhauser enhancement spectroscopy, mixing times 120 ms) experiments to assign chemical shifts were obtained with 500 μM ^15N-labeled samples of Bet v 1 isoform d or m and yielded 91% of assigned residues for Bet v 1d and 89% for Bet v 1m. The sequence-specific assignments of the amide resonances of Bet v 1a are reported elsewhere.
(§4) Interaction of Q3OS with the Bet v 1 isoforms was measured by incubating 700 μM Q3OS with 50 μM of each ^15N-labeled Bet v 1 isoform in 50 mM sodium phosphate, 50 mM NaCl buffer, pH 7.0.
(§5) For titration experiments all other flavonoids were dissolved in deuterated DMSO, while glucose and galactose were dissolved in 50 mM sodium phosphate buffer, 50 mM NaCl, pH 7.0, 10% deuterium oxide and titrated stepwise to a final excess of up to 17-fold to protein samples (ca. 100 μM). […] CSPs for ligand binding were calculated based on Eq (2): […] (2) ΔδHN and ΔδN, chemical shift differences of amide proton and nitrogen resonances, respectively, in ppm.
(§6) K d values for flavonoid binding were determined with NMRViewJ [89]. All analysable amino acid residues that were unaffected by DMSO addition and showing CSPs > 0.08 ppm were fitted to a quadratic binding curve with default settings, and an average K d app was calculated (Table 1 and S1–S3 Tables). The CSPs of all residues showing CSPs > 0.04 ppm were mapped either on models of Bet v 1d and Bet v 1m or on the Bet v 1a structure (pdb code 1BV1, [29]).

[3] = molecular target: T2, Bet v 1m (Betula pendula, UniProt P43186); experiment: UV/VIS equilibrium titration of flavonoids with Bet v 1m; assay type: binding, Betula verrucosa; conditions: for Absorption maxima, Bet v 1m:Flavonoid: complex with Bet v 1m
T2 construct: made in house
T2 sequence (P43186 whole entry): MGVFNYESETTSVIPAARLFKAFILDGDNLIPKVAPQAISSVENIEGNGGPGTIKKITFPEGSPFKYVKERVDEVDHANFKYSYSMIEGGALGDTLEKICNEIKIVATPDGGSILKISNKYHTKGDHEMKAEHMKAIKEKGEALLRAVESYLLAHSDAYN
Procedure: as §1, §2

[4] = UV/VIS absorption spectra of unbound flavonoids; assay type: physicochemical; conditions: pH 7.0
Procedure: as §1

[5] = molecular target: T2, Bet v 1m; experiment: 1H-15N HSQC NMR titration (chemical shift perturbation) of 15N-Bet v 1m; assay type: binding, Betula verrucosa
Procedure: as §3, §4, §5, §6

[6] = molecular target: T3, Bet v 1d (Betula pendula, UniProt P43177); experiment: UV/VIS equilibrium titration of flavonoids with Bet v 1d; assay type: binding, Betula verrucosa; conditions: for Absorption maxima, Bet v 1d:Flavonoid: complex with Bet v 1d
T3 construct: made in house
T3 sequence (P43177 whole entry): as the sequence (P15494 whole entry) above, with T8I, F31V, S58N, I92V, S113C, I114V, D126N counted along it
Procedure: as §1, §2

[7] = molecular target: T3, Bet v 1d; experiment: 1H-15N HSQC NMR titration (chemical shift perturbation) of 15N-Bet v 1d; assay type: binding, Betula verrucosa; conditions: for binding to Bet v 1d (in words): 1H-15N HSQC titration, up to 15-fold excess
Procedure: as §3, §4, §5, §6

[8] = molecular target: T2, Bet v 1m; experiment: 1H-15N HSQC NMR titration (chemical shift perturbation) of 15N-Bet v 1m; assay type: binding, Betula verrucosa; conditions: 1H-15N HSQC titration, up to 15-fold excess
[9] = system: serum IgE binding to surface-coated Bet v 1a, Bet v 1d and Bet v 1m; experiment: Indirect ELISA for IgE binding to Bet v 1 isoforms; set-up: species or system human; conditions: 5-fold molar excess of ligand; isoforms a, d, m
Description: Fifteen sera of birch pollen-allergic subjects were collected, tested, and pooled according to the guideline of the European Medicines Agency (EMEA/CHMP/BWP/304831/2007). The serum pool is routinely used for batch-release testing of birch pollen-derived allergenic products at the Paul-Ehrlich-Institut. The same serum pool was used for both, ELISA and mediator release assays.
For IgE-ELISA experiments, Maxisorp plates (Nunc via Fisher Scientific) were coated overnight at room temperature with 50 ng/100 μl recombinant Bet v 1 isoforms a, d, or m with a 5-fold molar excess of quercetin-3-O-sophorose, rutin, quercetin, quercetin-3-O-glucoside, quercetin-3-O-galactoside, or sophorose, respectively, in phosphate-buffered saline (PBS). After blocking with PBS containing 2% bovine serum albumin (BSA) these plates and an uncoated control were incubated with a dilution series of a serum pool of birch-pollen allergic subjects for 1 h at room temperature with PBS containing 0.05% Tween 20 and 0.1% BSA. Allergen-specific human IgE was detected with a horseradish peroxidase-conjugated mouse anti-human IgE antibody (Clone B3102E8, Southern biotech via Biozol, Eching, Germany) diluted 1:1000. 3,3′,5,5′-tetramethylbenzidine (Roth, Karlsruhe) was used as substrate for horseradish peroxidase, and the absorbance at 450 nm was measured after stopping the reaction with 25% H2SO4.

[10] = one value per residue with Δδnorm > 0.08 ppm (residue named left of the cell), Int. Ex. = intermediate exchange
[11] = Dissociation constant Kd (averaged Kd app), NMR, average of all analysable residues with CSPs > 0.08 ppm, ± standard deviation
[12] = Kd per residue, one value per residue with Δδnorm > 0.08 ppm (residue named left of the cell), Int. Ex. = intermediate exchange
[13] = NMR, average of all analysable residues with CSPs > 0.08 ppm, ± standard deviation
[14] = NMR, Bet v 1d, average of all analysable residues with CSPs > 0.08 ppm, ± standard deviation
[15] = NMR, average of all analysable residues with CSPs > 0.08 ppm, ± standard deviation, read-out: Dissociation constant Kd (averaged Kd app)

Compound	Kd ([1]; Bet v 1a)	Absorption maxima, Bet v 1a:Flavonoid [1]	Kd per residue [2, 10]	Kd [2, 11]	Kd [2, 12]	Absorption maxima, Flavonoid [4]	Kd [5, 11]	Kd per residue [5, 10]	Kd [6]	Absorption maxima, Bet v 1d:Flavonoid [6]	binding to Bet v 1a (in words) [2]	binding to Bet v 1m (in words) [8]	binding to Bet v 1d (in words) [7]	Dissociation constant Kd (averaged Kd app) [7, 14]	influence of ligand on IgE binding of Bet v 1 isoforms [9]	also measured
O=c1c(O)c(-c2ccc(O)c(O)c2)oc2cc(O)ccc12 [Fisetin, fisetin]	14.3 ± 1.1 µM	372 nm	Int. Ex.	37.2 ± 6.5 µM	18.2 µM and 39.4 µM and 72.5 µM and 16.1 µM and 53.5 µM and 48 µM and 36.8 µM and 18.6 µM and 28.6 µM and 17.4 µM and 16.8 µM	368 nm	85.1 ± 21.7 µM	Int. Ex.	13.9 ± 2.1 µM	371 nm						Kd [3]: 68.6 ± 12.4 µM; Absorption maxima, Bet v 1m:Flavonoid [3]: 370 nm; Kd [5, 12]: 150 µM and 28.9 µM and 109 µM and 111 µM and 81.3 µM and 20.4 µM
O=c1cc(-c2ccccc2)oc2ccccc12 [Flavone, flavone]				67.1 ± 12.1 µM		302 nm	213 ± 36.6 µM									Kd ([7]; Dissociation constant Kd (averaged Kd app), NMR, Bet v 1d, average of all analysable residues with CSPs > 0.08 ppm, ± standard deviation): 69.9 ± 14.8 µM
O=C[C@H](O)[C@@H](O)[C@@H](O)[C@H](O)CO [Galactose, galactose]											no detectable affinity	no detectable affinity	no detectable affinity	No binding		Dissociation constant Kd (averaged Kd app) [2, 13]: No binding; Dissociation constant Kd (averaged Kd app) [5, 13]: No binding
OC[C@H]1OC(O)[C@H](O)[C@@H](O)[C@@H]1O (stereo partly drawn) [Glucose, glucose]											no detectable affinity	no detectable affinity	no detectable affinity	No binding		Dissociation constant Kd (averaged Kd app) [2, 13]: No binding; Dissociation constant Kd (averaged Kd app) [5, 13]: No binding
O=c1c(O)c(-c2cc(O)c(O)c(O)c2)oc2cc(O)cc(O)c12 [Myricetin, myricetin]	4.2 ± 0.7 µM	387 nm	Int. Ex.	14.6 ± 6.5 µM	5 µM and 11.6 µM and 26.9 µM	378 nm	99.3 ± 19.4 µM	Int. Ex.	1.2 ± 0.2 µM	382 nm						fold higher affinity than flavone ([1]; Bet v 1a): 15 fold; Kd [5, 12]: 75.3 µM and 161 µM and 24.4 µM and 88.5 µM and 126 µM and 120 µM; fold higher affinity than flavone ([6]; Bet v 1d): 60 fold
O=C1C[C@@H](c2ccc(O)cc2)Oc2cc(O)cc(O)c21 [Naringenin, naringenin]	60.6 ± 3.2 µM	325 nm	Int. Ex.	~30 µM and 30 µM		325 nm	22.1 ± 5.5 µM	Int. Ex.	37.7 ± 6.4 µM	325 nm						Kd [3]: 28.1 ± 0.8 µM; Absorption maxima, Bet v 1m:Flavonoid [3]: 322 nm; Kd [5, 12]: 8.2 µM and 13.6 µM and 19 µM and 39.6 µM and 27.1 µM
O=c1c(O[C@@H]2O[C@H](CO)[C@H](O)[C@H](O)[C@H]2O)c(-c2ccc(O)c(O)c2)oc2cc(O)cc(O)c12 [Q3OGal, quercetin-3-O-galactoside]			Int. Ex.			358 nm		Int. Ex.			high affinity; also recorded: strong	High affinity	Weak affinity; also recorded: did not produce significant CSPs	No binding	did not modify IgE-binding	Kd [2, 15]: < 5 µM; Kd [5, 15]: < 5 µM
O=c1c(O[C@@H]2O[C@H](CO)[C@@H](O)[C@H](O)[C@H]2O)c(-c2ccc(O)c(O)c2)oc2cc(O)cc(O)c12 [Q3OGlc, quercetin-3-O-glucoside]			Int. Ex.	288 µM	357 µM and 259 µM and 285 µM and 252 µM	364 nm	< 5 µM	Int. Ex.			weak	High affinity; also recorded: strongly binds	Weak affinity; also recorded: did not produce significant CSPs	No binding	did not modify IgE-binding	
O=c1c(O)c(-c2ccc(O)c(O)c2)oc2cc(O)cc(O)c12 [Quercetin, quercetin]	9.2 ± 0.6 µM	382 nm	Int. Ex.	31.4 ± 10.3 µM	69.1 µM and 36.8 µM and 11.1 µM and 21.6 µM and 18.6 µM	377 nm	65.8 ± 8.2 µM	Int. Ex	10.2 ± 1 µM	382 nm					did not modify IgE-binding	Kd [3]: 26.5 ± 1.5 µM; Absorption maxima, Bet v 1m:Flavonoid [3]: 381 nm
C[C@@H]1O[C@@H](OC[C@H]2O[C@@H](Oc3c(-c4ccc(O)c(O)c4)oc4cc(O)cc(O)c4c3=O)[C@H](O)[C@@H](O)[C@@H]2O)[C@H](O)[C@H](O)[C@H]1O [rutin]															did not modify IgE-binding	
OC[C@H]1O[C@@H](O[C@H]2C(O)O[C@H](CO)[C@@H](O)[C@@H]2O)[C@H](O)[C@@H](O)[C@@H]1O (stereo partly drawn) [sophorose]															did not modify IgE-binding	

Source: article PMC4456386, “Ligand Recognition of the Major Birch Pollen Allergen Bet v 1 is Isoform Dependent” (PLoS ONE, 2015)
